# Experiment: method code SF-GLC, from DOI: 10.1016/s0022-3565(25)29827-5, PMID: 4823294
# Details: pH 7.4
row,Structure (SMILES),logD
1,CCCCCCCOC(N)=O,2.36
2,CCCCCOC(N)=O,1.35
3,CCC(C)(C)COC(N)=O,1.45
4,CCCCOC(N)=O,0.85
5,CCCCCCCCOC(N)=O,2.84
6,NC(=O)OCc1ccccc1,1.23
7,CC(C)(C)COC(N)=O,0.94
8,CCCOC(N)=O,0.36
9,CCCCCCOC(N)=O,1.85
10,CC(C)(C)OC(N)=O,0.48

# Source: the SangsterLogP compilation
